Broadly, the IC50 is the concentration that gives 50% inhibition.

Results on 4 compounds are retold here after PMC9415731, “Evaluation of PepT1 (SLC15A1) Substrate Characteristics of Therapeutic Cyclic Peptides” (Pharmaceutics, 2022).

SMILES strings stand for the structures. Read-outs that look alike come from different tables or passages of the source. Numbered stars: 1 amine (or outer) side, 2 acyl side, 3 side chain; on linkers, the order of the positions; unused ones are H or OH. Square brackets hold non-standard residues; d marks the D form. Side chains are listed from the residue outwards. Peptide text beside a SMILES is read from it. * marks the point of attachment. Ethylenediamine = C(CN[*:2])N[*:1]; Hyp = O=C(O)[C@@H]1C[C@@H](O)CN1; Phg = N[C@H](C(=O)O)c1ccccc1; CO = O=C([*:1])[*:2]; Bn = c1ccc(C*)cc1 Some results are limits rather than exact numbers.

In data set [1] the target is T1, hPepT1 (SLC15A1) (Homo sapiens, UniProt P46059).
T1 construct: host or cells: CHO-K1 (clones CHO-hPepT1-M5 and CHO-hPepT1-200)
T1 sequence (P46059 1-708): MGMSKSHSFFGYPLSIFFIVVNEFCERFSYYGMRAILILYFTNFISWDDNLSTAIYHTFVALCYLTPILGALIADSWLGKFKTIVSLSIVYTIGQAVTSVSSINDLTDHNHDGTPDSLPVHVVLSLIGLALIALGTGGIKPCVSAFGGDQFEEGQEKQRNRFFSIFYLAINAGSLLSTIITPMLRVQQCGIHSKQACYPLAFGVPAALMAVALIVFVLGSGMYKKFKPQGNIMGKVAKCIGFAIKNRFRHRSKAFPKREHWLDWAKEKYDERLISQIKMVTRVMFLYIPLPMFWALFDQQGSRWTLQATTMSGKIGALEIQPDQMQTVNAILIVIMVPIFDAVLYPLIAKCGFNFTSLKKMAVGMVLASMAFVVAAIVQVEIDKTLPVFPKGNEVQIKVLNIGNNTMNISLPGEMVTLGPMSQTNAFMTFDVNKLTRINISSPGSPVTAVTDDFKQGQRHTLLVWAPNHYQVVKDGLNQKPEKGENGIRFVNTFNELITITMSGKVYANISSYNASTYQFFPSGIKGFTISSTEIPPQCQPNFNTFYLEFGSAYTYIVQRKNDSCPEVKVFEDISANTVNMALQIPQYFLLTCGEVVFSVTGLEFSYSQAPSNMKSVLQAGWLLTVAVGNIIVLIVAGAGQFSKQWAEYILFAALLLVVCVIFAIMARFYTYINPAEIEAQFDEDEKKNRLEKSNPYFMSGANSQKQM
Nature of the data set: Inhibition of Gly-Sar uptake in hPepT1 overexpressing CHO-K1 clones (semi-high-throughput 96-well assay). Type of data set: cell-based. Here is the method: In a second step, inhibition of hPepT1 by losartan, one of the strongest inhibitors of this transporter, was tested in both clones. Inhibition experiments were conducted as previously described at a Gly-Sar concentration of 20 µM [13]. In brief, cells were seeded in 96-well plates 1 d before the assay at a concentration of 5 × 10^4 per well. On the day of the inhibition experiment, cells were washed once with MES buffer (100 µL/well) and subsequently incubated with 20 µM Gly-Sar and losartan (0.1–5000 µM), all prepared in MES buffer. After an incubation period of 10 min at 37 °C on a rotary shaker (450 rpm), transport was terminated by removing the solution and washing the cells with ice-cold MES buffer thrice while the plate was kept on ice. Afterwards, cells were lysed in the 96-well cell culture plate with aqueous NH4OH (10%, 50 µL/well), and sample preparation was performed as described previously. Inhibition in the clone CHO-hPepT1-M5 was also tested with Gly-Pro (0.1–5000 µM) as described for losartan.
The cyclic peptides were first evaluated for hPepT1 inhibition with the semi-high-throughput assay in 96-well plates established and validated earlier, but using CHO-hPepT1-M5 instead of Caco-2 cells. Cells were seeded 2 d before the assay at a concentration of 5 × 10^4/well, and the assay was conducted as published previously. Each concentration was tested in octuplet, and each experiment performed thrice.
(§1) Nonlinear regression curves were calculated with GraphPad Prism version 9.3.1 (GraphPad Software Inc., La Jolla, CA, USA) using the four-parameter fit (sigmoidal dose-response curves with variable slope) for inhibition experiments of a one-phase association nonlinear curve fit for the Gly-Sar uptake. […] A p-value < 0.05 was considered significant.

Data set [2] concerns the target T1, hPepT1 (SLC15A1). The experiment in a line: Uptake of cyclic peptides in CHO-hPepT1-M5 cells compared with parental CHO-K1 cells, with and without Gly-Pro. As to conditions: for hPepT1 substrate characteristics (conclusion): uptake in CHO-hPepT1-M5 vs CHO-K1 cells, with and without Gly-Pro. In kind it is cell-based. Here is the method:
For investigating the possible hPepT1 substrate characteristics of the cyclic peptides, their uptake was measured in the CHO-hPepT1-M5 clone with and without inhibition by Gly-Pro and compared with the CHO-K1 parental clone.
For each sample, 5 × 10^5 cells were suspended in 1.5 mL low-binding reaction tubes and washed once in MES buffer. Subsequently, cells were incubated in 100 µL of the respective cyclic peptide solution in MES with or without 20 mM Gly-Pro at 37 °C for 10 min on a rotary shaker (450 rpm). Cells were then washed twice with 0.4 mL ice-cold MES buffer before further proceeding as described in Section 2.8. Each concentration was tested in triplicate, and the experiment was conducted at least thrice.
Cell lysis was performed with 50 µL of 10% aqueous ammonia, and the lysates acidified with 50 µL of 20% aqueous FA to ensure stability of the peptide therapeutics during sample processing. Sample preparation and UPLC–MS/MS measurements were performed as previously described for plasma.
as §1

For data set [3] the following is noted: oral, Beagle dogs; ref Sauter et al., unpublished data; cited from earlier work.
[4] abbreviates: CHO-hPepT1-M5 cells, 20 µM Gly-Sar, inhibitor 0.1-5000 µM, MES buffer pH 6.0, 10 min, 37 °C, UPLC-MS/MS, mean ± S.E.M. of three independent experiments, each concentration in sextuplets, read-out: IC50 for inhibition of the Gly-Sar uptake.

`NCC(=O)N1CCC[C@H]1C(=O)O` [Gly-Pro] (H-Gly-Pro-OH): the IC50 in data set [1] (setting [4]) came out at 196 ± 41 µM.
Consider `CCCCc1nc(Cl)c(CO)n1Cc1ccc(-c2ccccc2-c2nn[nH]n2)cc1` [losartan], for which, in data set [1] (CHO-hPepT1-200 cells, 20 µM Gly-Sar, losartan 0.1-5000 µM, MES buffer pH 6.0, 10 min, 37 °C, compared with CHO-hPepT1-M5), the “Inhibition of the Gly-Sar uptake, shape of inhibition curve” value is on record as “the inhibition curve was much flatter”. Further, the IC50 in data set [1] (setting [4]) is 37 ± 4.8 µM.
Turning to `C[C@@H](O)[C@@H]1NC(=O)[C@H](CCCCN)NC(=O)[C@@H](Cc2c[nH]c3ccccc23)NC(=O)[C@H](Cc2ccccc2)NC(=O)[C@@H](NC(=O)[C@H](N)Cc2ccccc2)CSSC[C@@H](C(=O)N[C@H](CO)[C@@H](C)O)NC1=O` [octreotide], 4200 ± 1600 µM corresponded to half-maximal inhibition in data set [1] (IC50). The “hPepT1 substrate characteristics (conclusion)” value in data set [2] is on record as “not transported by hPepT1”. For the same compound, in data set [3], the Bioavailability was greater than 1%.
Take `NCCCC[C@@H]1NC(=O)[C@@H](Cc2c[nH]c3ccccc23)NC(=O)[C@H](c2ccccc2)NC(=O)[C@@H]2C[C@@H](OC(=O)NCCN)CN2C(=O)[C@H](Cc2ccccc2)NC(=O)[C@H](Cc2ccc(OCc3ccccc3)cc2)NC1=O` [pasireotide] (cyclo([Hyp]([CO-Ethylenediamine])[Phg][dW]KY(Bn)F)): the IC50 in data set [1] was 530 ± 110 µM. In addition, the “Difference in uptake between cells without (CHO-K1) and with hPepT1 overexpression (CHO-hPepT1-M5)” value in data set [2] (5 x 10^5 cells in suspension, MES buffer pH 6, 10 min, 37 °C, intracellular quantification by UPLC-MS/MS, three experiments in triplicate, two-way ANOVA with Bonferroni post hoc test) is “no obvious difference in the uptake”. In addition, the “hPepT1 substrate characteristics (conclusion)” value in data set [2] is recorded as “not transported by hPepT1”. Moreover, in data set [2] (with or without 20 mM Gly-Pro, CHO-hPepT1-M5 and CHO-K1 cells, MES buffer pH 6, 10 min, 37 °C, UPLC-MS/MS, three experiments in triplicate), the “Influence of the PepT1 inhibitor Gly-Pro on the uptake” value is “no significant influence on the uptake”. Besides, the Bioavailability in data set [3] is on record as greater than 1%.
